Calls of active or inactive are those of the source. The calls are words filed in the database; no cut-off is given here.
What was measured:
[1] = Plasma protein binding in mouse incubated for 15 mins by LC-MS/MS analysis; assay type: ADME, cell-free; settings: read-out: PPB (converted)
[2] = Toxicity in CD-1 mouse xenografted with BRM-dependent human HCC2302 cells assessed as body weight loss at 10 to 30 mg/kg, ip administered once daily for 11 days; assay type: organism-based; settings: in vivo, 264 h, dose 10-30 mg/kg, time 11 day
SW1573 [3] = assay: Induction of PALS1 degradation in human SW1573 cells at 100 nM incubated for 8 hrs by proteomics analysis; assay type: cell-based
[4] = Half life in mouse at 1 mg/kg, iv measured upto 60 mins by LC-MS/MS analysis; assay type: ADME, organism-based; settings: in vivo
[5] = Toxicity in CD-1 mouse xenografted with BRM-dependent human HCC2302 cells assessed as animal death at 10 to 30 mg/kg, ip measured at 9 to 13 days; assay type: organism-based; settings: in vivo, dose lower 10 mg/kg, time lower 9 day, dose upper 30 mg/kg, time upper 13 day
HCC2302 [6] = assay: Antitumor activity against human BRM-dependent HCC2302 cells xenografted in CD-1 mouse assessed as reduction in tumor growth at 10 to 30 mg/kg, ip administered once daily for 11 days; assay type: functional, organism-based; settings: dose 10-30 mg/kg, time 11.0 day
[7] = Clearance in mouse at 1 mg/kg, iv measured upto 60 mins by LC-MS/MS analysis; assay type: ADME, organism-based; settings: in vivo, 1 h
Calu-6 = assay: Antiproliferative activity against human Calu-6 cells assessed as growth inhibition incubated for 7 days by celltiter glo 2.0 assay; assay type: functional; settings: Calu-6, 168 h, time 7 day
[8] = Drug concentration in mouse plasma measured for 24 hrs; assay type: ADME, cell-free
[9] = Toxicity in CD-1 mouse xenografted with BRM-dependent human HCC2302 cells assessed as tolerability at 10 mg/kg, ip measured at 15 days; assay type: organism-based; settings: in vivo, 360 h, time 15 day
NCI-H1944 = assay: Antiproliferative activity against BRM-dependent human NCI-H1944 cells assessed as growth inhibition incubated for 7 days by celltiter glo 2.0 assay; assay type: functional; settings: NCI-H1944, 168 h, time 7 day
[10] = biological target: Urokinase-type plasminogen activator (Homo sapiens) (UniProt P00749); assay: Induction of PLAU degradation in human SW1573 cells at 100 nM incubated for 8 hrs by proteomics analysis; assay type: cell-based
[11] = Toxicity in CD-1 mouse xenografted with BRM-dependent human HCC2302 cells assessed as animal survival at 10 mg/kg, ip measured at 15 days; assay type: organism-based; settings: in vivo, 360 h, time 15 day
[12] = biological target: MAP kinase-activated protein kinase 3 (Homo sapiens) (UniProt Q16644); assay: Induction of MAPKAPK3 degradation in human SW1573 cells at 100 nM incubated for 8 hrs by proteomics analysis; assay type: cell-based
Chain of MAP kinase-activated protein kinase 3 (Homo sapiens) (Q16644 whole entry, looked up): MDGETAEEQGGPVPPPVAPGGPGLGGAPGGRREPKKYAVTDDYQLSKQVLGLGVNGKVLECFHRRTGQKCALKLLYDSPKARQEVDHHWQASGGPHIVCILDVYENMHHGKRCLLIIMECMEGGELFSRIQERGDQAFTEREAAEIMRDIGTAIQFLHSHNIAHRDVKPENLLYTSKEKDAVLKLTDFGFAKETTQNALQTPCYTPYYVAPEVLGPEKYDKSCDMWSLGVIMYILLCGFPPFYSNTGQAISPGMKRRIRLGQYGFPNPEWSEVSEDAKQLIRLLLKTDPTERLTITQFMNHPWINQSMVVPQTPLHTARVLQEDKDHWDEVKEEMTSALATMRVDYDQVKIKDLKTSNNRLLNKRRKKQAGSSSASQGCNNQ

[13] = Drug concentration in mouse tumor at 20 mg/kg, ip measured for 96 hrs; assay type: ADME, organism-based, Neoplasm; settings: read-out: Ct
Mus musculus [14] = assay: In-vivo PROTAC activity at BRM/VHL in CD-1 mouse xenografted with Murine stromal cell line at 20 mg/kg, iv measured for 96 hrs; assay type: functional
[15] = biological target: Protein polybromo-1 (Homo sapiens) (UniProt Q86U86); assay: Induction of PBRM1 degradation in human SW1573 cells at 100 nM incubated for 8 hrs by proteomics analysis; assay type: cell-based
Chain of Protein polybromo-1 (Homo sapiens) (Q86U86 whole entry): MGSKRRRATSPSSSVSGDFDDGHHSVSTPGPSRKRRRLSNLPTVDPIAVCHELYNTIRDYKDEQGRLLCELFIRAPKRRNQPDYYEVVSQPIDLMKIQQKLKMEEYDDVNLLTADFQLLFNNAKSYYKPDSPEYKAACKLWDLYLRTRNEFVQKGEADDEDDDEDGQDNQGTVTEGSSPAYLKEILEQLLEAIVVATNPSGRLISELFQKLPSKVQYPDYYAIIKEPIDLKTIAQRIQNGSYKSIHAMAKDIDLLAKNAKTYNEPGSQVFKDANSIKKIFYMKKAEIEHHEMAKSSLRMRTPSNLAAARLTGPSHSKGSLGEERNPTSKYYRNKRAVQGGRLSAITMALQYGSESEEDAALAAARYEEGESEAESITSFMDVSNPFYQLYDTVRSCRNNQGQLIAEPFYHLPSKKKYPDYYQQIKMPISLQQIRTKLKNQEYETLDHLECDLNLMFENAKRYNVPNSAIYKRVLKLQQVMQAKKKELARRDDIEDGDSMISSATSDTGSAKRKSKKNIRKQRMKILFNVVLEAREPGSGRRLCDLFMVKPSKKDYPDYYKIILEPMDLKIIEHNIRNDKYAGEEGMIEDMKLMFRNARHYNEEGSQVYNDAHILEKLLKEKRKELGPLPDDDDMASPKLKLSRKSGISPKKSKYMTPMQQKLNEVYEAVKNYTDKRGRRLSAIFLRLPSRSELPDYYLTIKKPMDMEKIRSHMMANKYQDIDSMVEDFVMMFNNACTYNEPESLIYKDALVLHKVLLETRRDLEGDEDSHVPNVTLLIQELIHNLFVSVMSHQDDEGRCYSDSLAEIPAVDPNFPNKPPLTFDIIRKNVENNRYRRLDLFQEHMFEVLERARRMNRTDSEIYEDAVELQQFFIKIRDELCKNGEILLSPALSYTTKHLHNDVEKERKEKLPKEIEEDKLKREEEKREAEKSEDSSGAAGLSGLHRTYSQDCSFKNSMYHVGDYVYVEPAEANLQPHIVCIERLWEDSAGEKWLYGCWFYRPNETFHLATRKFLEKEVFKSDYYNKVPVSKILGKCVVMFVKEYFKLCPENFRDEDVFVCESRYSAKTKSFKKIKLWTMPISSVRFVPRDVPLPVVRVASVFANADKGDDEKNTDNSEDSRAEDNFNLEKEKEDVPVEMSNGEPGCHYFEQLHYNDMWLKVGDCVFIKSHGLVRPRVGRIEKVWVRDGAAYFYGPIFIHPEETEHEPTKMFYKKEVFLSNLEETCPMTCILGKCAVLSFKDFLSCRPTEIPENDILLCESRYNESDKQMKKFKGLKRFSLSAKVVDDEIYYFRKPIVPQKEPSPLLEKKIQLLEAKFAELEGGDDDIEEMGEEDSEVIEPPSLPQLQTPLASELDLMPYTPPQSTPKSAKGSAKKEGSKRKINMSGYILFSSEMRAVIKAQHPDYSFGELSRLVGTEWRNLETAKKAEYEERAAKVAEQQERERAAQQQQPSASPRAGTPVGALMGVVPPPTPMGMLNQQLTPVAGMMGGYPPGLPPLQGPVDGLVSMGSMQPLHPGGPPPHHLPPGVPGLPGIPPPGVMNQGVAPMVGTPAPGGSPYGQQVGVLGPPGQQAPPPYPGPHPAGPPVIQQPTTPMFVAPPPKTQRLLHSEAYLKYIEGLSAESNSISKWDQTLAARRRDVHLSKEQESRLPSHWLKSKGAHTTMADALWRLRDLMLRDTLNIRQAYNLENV

Mus musculus [16] = assay: In-vivo PROTAC activity at BRM/VHL in CD-1 mouse xenografted with human HCC2302 cells at 20 mg/kg, iv measured for 96 hrs; assay type: functional
SW1573 [17] = assay: Induction of PATJ degradation in human SW1573 cells at 100 nM incubated for 8 hrs by proteomics analysis; assay type: cell-based
HCC2302 [18] = assay: Antitumor activity against human BRM-dependent HCC2302 cells xenografted in CD-1 mouse assessed as suppression of PLAU mRNA level at 30 mg/kg, iv administered 7 times and measured after 96 hrs; assay type: functional
[19] = Half life in CD-1 mouse at 30 mg/kg, iv measured for 24 hrs; assay type: ADME, organism-based; settings: in vivo
Mus musculus [20] = assay: In-vivo PROTAC activity at BRM/VHL in CD-1 mouse xenografted with human HCC2302 cells assessed as reduction in BRM level in tumor at 10 mg/kg, iv administered twice weekly for 7 times for 21 days and measured after 24 hrs post dose by Western blot analysis; assay type: functional; parameters: scale not given: the % may be the effect or the level left; settings: time 22 day
[21] = Initial plasma concentration in CD-1 mouse at 30 mg/kg, iv measured for 24 hrs; assay type: ADME, organism-based
HCC2302 [22] = assay: Antitumor activity against human BRM-dependent HCC2302 cells xenografted in CD-1 mouse assessed as suppression of KRT80 mRNA level at 10 mg/kg, iv administered twice weekly for 7 times for 21 days and measured after 24 hrs post dose; assay type: functional; settings: time 22 day
HCC2302 [23] = assay: Antitumor activity against human BRM-dependent HCC2302 cells xenografted in CD-1 mouse assessed as suppression of PLAU mRNA level at 10 mg/kg, iv administered twice weekly for 7 times for 21 days and measured after 24 hrs post dose; assay type: functional; settings: time 22 day
HCC2302 [24] = assay: Antitumor activity against human BRM-dependent HCC2302 cells xenografted in CD-1 mouse assessed as tumor growth inhibition at 20 mg/kg, ip administered twice per week for 21 days; assay type: functional, organism-based; settings: time 21.0 day
HCC2302 [25] = assay: Antitumor activity against human BRM-dependent HCC2302 cells xenografted in CD-1 mouse assessed as tumor growth inhibition at 30 mg/kg, iv administered 7 times and measured after 96 hrs; assay type: functional; settings: read-out: TGI
HCC2302 [26] = assay: Antitumor activity against human BRM-dependent HCC2302 cells xenografted in CD-1 mouse assessed as tumor growth inhibition at 20 mg/kg, iv administered twice weekly for 7 times for 21 days and measured after 24 hrs post dose; assay type: functional; settings: HCC2302, 528 h, time 22 day, read-out: TGI
Mus musculus [27] = assay: In-vivo PROTAC activity at BRG1 /VHL in CD-1 mouse xenografted with human HCC2302 cells assessed as reduction in BRG1 level in tumor at 20 mg/kg, iv administered twice weekly for 7 times for 21 days and measured after 24 hrs post dose by Western blot analysis; assay type: functional; parameters: scale not given: the % may be the effect or the level left; settings: time 22 day
HCC2302 [28] = assay: Antitumor activity against human BRM-dependent HCC2302 cells xenografted in CD-1 mouse assessed as tumor growth inhibition at 10 mg/kg, iv administered twice weekly for 7 times for 21 days and measured after 24 hrs post dose; assay type: functional; settings: HCC2302, 528 h, time 22 day, read-out: TGI
HCC2302 [29] = assay: Antitumor activity against human BRM-dependent HCC2302 cells xenografted in CD-1 mouse assessed as suppression of KRT80 mRNA level at 20 mg/kg, iv administered twice weekly for 7 times for 21 days and measured after 24 hrs post dose; assay type: functional; settings: time 22 day
HCC2302 [30] = assay: Antitumor activity against human BRM-dependent HCC2302 cells xenografted in CD-1 mouse assessed as suppression of PLAU mRNA level at 20 mg/kg, iv administered twice weekly for 7 times for 21 days and measured after 24 hrs post dose; assay type: functional; settings: time 22 day
HCC2302 [31] = assay: Antitumor activity against human BRM-dependent HCC2302 cells xenografted in CD-1 mouse assessed as tumor growth inhibition at 10 mg/kg, iv administered twice per week for 21 days; assay type: functional, organism-based; settings: time 21.0 day
HCC2302 [32] = assay: Antitumor activity against human BRM-dependent HCC2302 cells xenografted in CD-1 mouse at 30 mg/kg, iv administered twice per week for 11 days; assay type: functional, organism-based; settings: time 11.0 day
[33] = Volume of distribution in CD-1 mouse at 30 mg/kg, iv measured for 24 hrs; assay type: ADME, organism-based; settings: in vivo
[34] = Clearance in CD-1 mouse at 30 mg/kg, iv measured for 24 hrs; assay type: ADME, organism-based; settings: in vivo
Mus musculus [35] = assay: In-vivo PROTAC activity at BRM/VHL in CD-1 mouse xenografted with human HCC2302 cells assessed as reduction in BRM level in tumor at 20 mg/kg, iv administered twice weekly for 7 times for 21 days and measured after 24 hrs post dose by Western blot analysis; assay type: functional; parameters: scale not given: the % may be the effect or the level left; settings: time 22 day
[36] = Toxicity in CD-1 mouse xenografted with BRM-dependent human HCC2302 cells assessed as animal death at 10 mg/kg, ip administered once daily for 7 days; assay type: organism-based; settings: in vivo, 168 h, time 7 day
[37] = Toxicity in CD-1 mouse xenografted with BRM-dependent human HCC2302 cells assessed as body weight loss at 10 mg/kg, ip administered once daily for 7 days; assay type: organism-based; settings: in vivo, 168 h, time 7 day
[38] = Volume of distribution in CD-1 mouse at 10 mg/kg, iv measured for 24 hrs; assay type: ADME, organism-based; settings: in vivo
[39] = Initial plasma concentration in CD-1 mouse at 10 mg/kg, iv measured for 24 hrs; assay type: ADME, organism-based
[40] = AUClast in CD-1 mouse at 30 mg/kg, iv measured for 24 hrs; assay type: ADME, organism-based; settings: in vivo
HCC2302 [41] = assay: Antitumor activity against human BRM-dependent HCC2302 cells xenografted in CD-1 mouse assessed as suppression of KRT80 mRNA level at 30 mg/kg, iv administered 7 times and measured after 96 hrs; assay type: functional
[42] = Half life in CD-1 mouse at 10 mg/kg, iv measured for 24 hrs; assay type: ADME, organism-based; settings: in vivo
Mus musculus [43] = assay: In-vivo PROTAC activity at BRM/VHL in CD-1 mouse xenografted with human HCC2302 cells assessed as reduction in BRM level in tumor at 30 mg/kg, iv administered 7 times and measured after 96 hrs by Western blot analysis; assay type: functional; parameters: scale not given: the % may be the effect or the level left
Mus musculus [44] = assay: In-vivo PROTAC activity at BRG1 /VHL in CD-1 mouse xenografted with human HCC2302 cells assessed as reduction in BRG1 level in tumor at 30 mg/kg, iv administered 7 times and measured after 96 hrs by Western blot analysis; assay type: functional; parameters: scale not given: the % may be the effect or the level left
[45] = Toxicity in CD-1 mouse xenografted with BRM-dependent human HCC2302 cells assessed as body weight loss at 20 mg/kg, ip administered twice per week for 21 days; assay type: organism-based; settings: in vivo, 504 h, time 21 day
[46] = Clearance in CD-1 mouse at 10 mg/kg, iv measured for 24 hrs; assay type: ADME, organism-based; settings: in vivo
[47] = AUClast in CD-1 mouse at 10 mg/kg, iv measured for 24 hrs; assay type: ADME, organism-based; settings: in vivo
Mus musculus [48] = assay: In-vivo PROTAC activity at BRG1 /VHL in CD-1 mouse xenografted with human HCC2302 cells assessed as reduction in BRG1 level in tumor at 10 mg/kg, iv administered twice weekly for 7 times for 21 days and measured after 24 hrs post dose by Western blot analysis; assay type: functional; parameters: scale not given: the % may be the effect or the level left; settings: time 22 day

## Cc1ncsc1-c1ccc([C@H](C)NC(=O)[C@@H]2C[C@@H](O)CN2C(=O)[C@@H](c2cc(OCCN3CCC(O[C@H]4C[C@H](Oc5cc(N6C7CCC6CN(c6cc(-c8ccccc8O)nnc6N)C7)ccn5)C4)CC3)no2)C(C)C)cc1
[1]
  fraction unbound at 0.25 h: 0.027
[2]
  Activity: Toxic
SW1573 [3]
  Activity: Active
[4]
  half-life: 2.6 h
[5]
  Activity: Toxic
HCC2302 [6]
  Activity: Active
[7]
  clearance: 22 mL/min/kg
Calu-6
  GI50: 24 nM
[8]
  concentration at 24 h: 26 nM
[9]
  Activity: Non-Toxic
NCI-H1944
  GI50: 0.64 nM
[10]
  Activity: Active
[11]
  Activity: Non-Toxic
[12]
  Activity: Active
[13]
  concentration at 96 h: 158 ng/g
Mus musculus [14]
  Activity: 4%
[15]
  Activity: Active
Mus musculus [16]
  Activity: 64%
SW1573 [17]
  Activity: Active

## Cc1ncsc1-c1ccc([C@H](C)NC(=O)[C@@H]2C[C@@H](O)CN2C(=O)[C@@H](c2cc(N3CCC(CN4CCC(O[C@H]5C[C@H](Oc6cc(N7C8CCC7CN(c7cc(-c9ccccc9O)nnc7N)C8)ccn6)C5)CC4)CC3)no2)C(C)C)cc1
HCC2302 [18]
  Activity: 97%
[19]
  half-life: 8.9 h
[1]
  fraction unbound at 0.25 h: 0.048
Mus musculus [20]
  Activity: 81%
[21]
  C0 at 24 h: 58000 ng/mL
HCC2302 [22]
  Activity: 25%
[4]
  half-life: 16 h
HCC2302 [23]
  Activity: 91%
HCC2302 [24]
  TGI: Active
HCC2302 [25]
  inhibition in vivo at 30 mg/kg: > 65%
[7]
  clearance: 9.6 mL/min/kg
HCC2302 [26]
  inhibition in vivo at 20 mg/kg: 62%
Calu-6
  GI50: 6.5 nM
Mus musculus [27]
  Activity: 47%
[8]
  concentration at 24 h: 71 nM
HCC2302 [28]
  inhibition in vivo at 10 mg/kg: 1%
HCC2302 [29]
  Activity: 71%
HCC2302 [30]
  Activity: 98%
HCC2302 [31]
  TGI: inactive
HCC2302 [32]
  Activity: Active
[33]
  Vd: 8.7 L/kg
[34]
  clearance: 15 mL/min/kg
Mus musculus [35]
  Activity: 99%
[36]
  Activity: Non-Toxic
[37]
  Activity: Non-Toxic
[38]
  Vd: 6.3 L/kg
NCI-H1944
  GI50: 0.58 nM
[39]
  C0 at 24 h: 12600 ng/mL
[13]
  concentration at 96 h: 483 ng/g
[40]
  AUC(0-t) at 24 h: 30800 ng·h/mL
HCC2302 [41]
  Activity: 72%
[42]
  half-life: 6.6 h
Mus musculus [43]
  Activity: 97%
Mus musculus [14]
  Activity: 22%
Mus musculus [44]
  Activity: 84%
Mus musculus [16]
  Activity: 82%
[45]
  Activity: Non-Toxic
[46]
  clearance: 16 mL/min/kg
[47]
  AUC(0-t) at 24 h: 10200 ng·h/mL
Mus musculus [48]
  Activity: 30%
